Several values for one entry are separate records, joined by “and”; a condition that tells them apart may be missing. Identical values can stand only once. Inconclusive results and toxic doses are left out. Rule as the data show it: active = T/C of 150% or more; inactive = T/C below 125%.
Tested on: L1210 leukemia ip in BDF1 mice, survival T/C
Experiment: NCI In Vivo Anticancer Drug Screen. Data for tumor model L1210 Leukemia (intraperitoneal) in B6D2F1 (BDF1) mice
Details: endpoint: mean survival time, higher = longer survival
Procedure, shortened: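 Transplantable tumor model; survival measured in treated vs vehicle control mice. Value = treated/control.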

[1] = dose: 100.0 mg/kg/injection, schedule: Q04DX003 (ip), vehicle: Klucel (hydroxypropylcellulose) (HPC)
[2] = dose: 200.0 mg/kg/injection, schedule: Q04DX003 (ip), vehicle: Klucel (hydroxypropylcellulose) (HPC)
[3] = dose: 400.0 mg/kg/injection, schedule: Q04DX003 (ip), vehicle: Klucel (hydroxypropylcellulose) (HPC)
[4] = dose: 100.0 mg/kg/injection, schedule: Q04DX003 (ip), vehicle: saline
[5] = dose: 200.0 mg/kg/injection, schedule: Q04DX003 (ip), vehicle: saline
[6] = dose: 400.0 mg/kg/injection, schedule: Q04DX003 (ip), vehicle: saline
[7] = dose: 100.0 mg/kg/injection, schedule: Q04DX002 (ip), vehicle: saline with Tween-80
[8] = dose: 200.0 mg/kg/injection, schedule: Q04DX002 (ip), vehicle: saline with Tween-80
[9] = dose: 400.0 mg/kg/injection, schedule: Q04DX002 (ip), vehicle: saline with Tween-80
[10] = dose: 100.0 mg/kg/injection, schedule: Q01DX009 (ip), vehicle: Klucel (hydroxypropylcellulose) (HPC)
[11] = dose: 200.0 mg/kg/injection, schedule: Q01DX009 (ip), vehicle: Klucel (hydroxypropylcellulose) (HPC)
[12] = dose: 400.0 mg/kg/injection, schedule: Q01DX009 (ip), vehicle: Klucel (hydroxypropylcellulose) (HPC)
[13] = dose: 100.0 mg/kg/injection, schedule: Q01DX001 (ip), vehicle: carboxymethylcellulose (CMC)
[14] = dose: 200.0 mg/kg/injection, schedule: Q01DX001 (ip), vehicle: carboxymethylcellulose (CMC)
[15] = dose: 400.0 mg/kg/injection, schedule: Q01DX001 (ip), vehicle: carboxymethylcellulose (CMC)
[16] = dose: 100.0 mg/kg/injection, schedule: Q01DX009 (ip), vehicle: saline
[17] = dose: 100.0 mg/kg/injection, schedule: Q04DX003 (ip), vehicle: saline with Tween-80
[18] = dose: 200.0 mg/kg/injection, schedule: Q01DX009 (ip), vehicle: saline
[19] = dose: 200.0 mg/kg/injection, schedule: Q04DX003 (ip), vehicle: saline with Tween-80
[20] = dose: 400.0 mg/kg/injection, schedule: Q04DX003 (ip), vehicle: saline with Tween-80
[21] = dose: 100.0 mg/kg/injection, schedule: Q01DX001 (ip), vehicle: saline
[22] = dose: 200.0 mg/kg/injection, schedule: Q01DX001 (ip), vehicle: saline

Measured: T/C

CCN(CC)C(=S)c1ccc(C(=S)N(CC)CC)cc1
inactive: [1] 91 % of control | [2] 93 % of control | [3] 93 % of control

OC(CNc1ccccc1)CN1CCOCC1 (centres undefined)
inactive: dose: 100.0 mg/kg/injection, schedule: Q01DX001 (ip), vehicle: other 101 % of control | [4] 100 % of control | dose: 200.0 mg/kg/injection, schedule: Q01DX001 (ip), vehicle: other 96 % of control | [5] 94 % of control | dose: 400.0 mg/kg/injection, schedule: Q01DX001 (ip), vehicle: other 105 % of control | [6] 94 % of control

CC(C)OC(=O)c1ccc([N+](=O)[O-])cc1
inactive: dose: 100.0 mg/kg/injection, schedule: Q04DX002 (ip), vehicle: Klucel (hydroxypropylcellulose) (HPC) 95 % of control | dose: 200.0 mg/kg/injection, schedule: Q04DX002 (ip), vehicle: Klucel (hydroxypropylcellulose) (HPC) 110 % of control | dose: 400.0 mg/kg/injection, schedule: Q04DX002 (ip), vehicle: Klucel (hydroxypropylcellulose) (HPC) 95 % of control

[Br][Hg][CH2]COC[CH2][Hg][Br]
inactive: dose: 6.25 mg/kg/injection, schedule: Q01DX009 (ip), vehicle: Klucel (hydroxypropylcellulose) (HPC) 103 % of control | dose: 12.5 mg/kg/injection, schedule: Q01DX009 (ip), vehicle: Klucel (hydroxypropylcellulose) (HPC) 93 % of control | dose: 25.0 mg/kg/injection, schedule: Q01DX009 (ip), vehicle: Klucel (hydroxypropylcellulose) (HPC) 112 % of control

COC(=O)C[CH2][Ge]([CH3])([CH3])[CH3]
inactive: dose: 6.25 mg/kg/injection, schedule: Q04DX002 (ip), vehicle: saline with Tween-80 89 % of control | dose: 12.5 mg/kg/injection, schedule: Q04DX002 (ip), vehicle: saline with Tween-80 96 % of control | dose: 25.0 mg/kg/injection, schedule: Q04DX002 (ip), vehicle: saline with Tween-80 96 % of control | [7] 95 % of control | [8] 95 % of control | [9] 93 % of control

COc1ccccc1/C=N/NC(=O)CCCCCCCCC(=O)N/N=C/c1ccccc1OC
inactive: [10] 95 % of control | [11] 88 % of control | [12] 88 % of control

CC(=O)CC(=O)Nc1cc(Cl)ccc1C
inactive: [1] 92 % of control | [11] 92 % of control | [2] 97 % of control | [3] 92 % of control

Nc1nc(SCc2ccccn2)c2[nH]cnc2n1
active: [3] 155 % of control
inactive: dose: 45.0 mg/kg/injection, schedule: Q04DX003 (ip), vehicle: Klucel (hydroxypropylcellulose) (HPC) 121 % of control | dose: 65.0 mg/kg/injection, schedule: Q04DX003 (ip), vehicle: Klucel (hydroxypropylcellulose) (HPC) 124 % of control

Cc1ccc(-c2c([N+](=O)[O-])ccc(Cl)c2[N+](=O)[O-])cc1
inactive: dose: 50.0 mg/kg/injection, schedule: Q01DX001 (ip), vehicle: carboxymethylcellulose (CMC) 102 % of control | [13] 105 % of control | [14] 102 % of control | [15] 100 % of control

CC(=O)OC1CC(OC2C(O)CC(OC3C(O)CC(OC4CCC5(C)C(CCC6C5CC(O)C5(C)C(C7=CC(=O)OC7)CCC65O)C4)OC3C)OC2C)OC(C)C1OC1OC(CO)C(O)C(O)C1O (centres undefined)
inactive: dose: 50.0 mg/kg/injection, schedule: Q01DX001 (sc), vehicle: steriod suspending solution 100 % of control | dose: 75.0 mg/kg/injection, schedule: Q01DX001 (ip), vehicle: other 95 % of control | dose: 100.0 mg/kg/injection, schedule: Q01DX001 (sc), vehicle: steriod suspending solution 109 % of control | dose: 150.0 mg/kg/injection, schedule: Q01DX001 (ip), vehicle: other 97 % of control | dose: 200.0 mg/kg/injection, schedule: Q01DX001 (sc), vehicle: steriod suspending solution 103 % of control | dose: 300.0 mg/kg/injection, schedule: Q01DX001 (ip), vehicle: other 93 % of control | dose: 400.0 mg/kg/injection, schedule: Q01DX001 (sc), vehicle: steriod suspending solution 105 % of control

OC(C#CC(O)c1ccccc1)c1ccccc1 (centres undefined)
inactive: [16] 86 % of control | [17] 97 % of control | [18] 108 % of control | [19] 94 % of control | [20] 87 % of control

O=C(OC1CSC(OC(=O)c2ccccc2)CS1)c1ccccc1 (centres undefined)
inactive: [7] 95 % of control | [8] 95 % of control | [9] 91 % of control

CCCCCCCCCCCCCC[N+]1(C)CCS(=O)CC1 (centres undefined)
inactive: dose: 25.0 mg/kg/injection, schedule: Q01DX001 (ip), vehicle: saline 102 % of control | dose: 50.0 mg/kg/injection, schedule: Q01DX001 (ip), vehicle: saline 107 % of control | [21] 102 % of control

COc1ccc(Cl)cc1NC(=O)c1ccccc1C(=O)O
inactive: [10] 98 % of control | [1] 101 % of control | [11] 102 % of control | [2] 96 % of control | [12] 94 % of control | [3] 103 % of control

Cc1nc2cccc3ccc4cc5ccccc5c1c4c32
inactive: [17] 89 % of control | [19] 93 % of control

CCOC(=O)C1=C(C(=O)OCC)C2(c3ccccc3)NC1(c1ccccc1)c1ccccc12
inactive: [21] 101 % of control | [22] 97 % of control | dose: 400.0 mg/kg/injection, schedule: Q01DX001 (ip), vehicle: saline 97 % of control

C1CN(C[C@H]2COC[C@@H](CN3CCOCC3)O2)CCO1
inactive: dose: 75.0 mg/kg/injection, schedule: Q04DX003 (ip), vehicle: saline 98 % of control | dose: 150.0 mg/kg/injection, schedule: Q04DX003 (ip), vehicle: saline 106 % of control | dose: 300.0 mg/kg/injection, schedule: Q04DX003 (ip), vehicle: saline 95 % of control

O=C(Nc1ccc2c(c1)OCO2)O/N=C\c1ccccn1
inactive: dose: 50.0 mg/kg/injection, schedule: Q01DX009 (ip), vehicle: saline with Tween-80 103 % of control | dose: 100.0 mg/kg/injection, schedule: Q01DX009 (ip), vehicle: saline with Tween-80 86 % of control and 92 % of control | [17] 100 % of control | dose: 200.0 mg/kg/injection, schedule: Q01DX009 (ip), vehicle: saline with Tween-80 86 % of control and 92 % of control | [19] 101 % of control | dose: 400.0 mg/kg/injection, schedule: Q01DX009 (ip), vehicle: saline with Tween-80 91 % of control | [20] 95 % of control

Cc1ccc(NC(=O)Nc2c(C)cccc2C)cc1
inactive: [13] 95 % of control | [14] 95 % of control | [15] 103 % of control

Cc1ccc(S(=O)(=O)NC(CCC(=O)O)C(=O)O)cc1 (centres undefined)
inactive: [21] 91 % of control | [16] 93 % of control | [4] 108 % of control | [22] 102 % of control | [18] 100 % of control | [5] 103 % of control | dose: 400.0 mg/kg/injection, schedule: Q01DX009 (ip), vehicle: saline 88 % of control | [6] 106 % of control

COC1OC(CBr)C(OC(C)=O)C(OC(C)=O)C1OC(C)=O (centres undefined)
inactive: [17] 93 % of control | [19] 98 % of control | [20] 98 % of control

CCOP(=O)(OCC)OCc1ccccc1
inactive: dose: 12.5 mg/kg/injection, schedule: Q04DX003 (ip), vehicle: saline with Tween-80 98 % of control

O=C(Nc1ccc(F)c([N+](=O)[O-])c1)NC(Cc1ccccc1)c1ccccc1 (centres undefined)
inactive: [10] 98 % of control | [11] 101 % of control | [12] 104 % of control

COc1ccccc1-n1c(O)c(N=Nc2ccc(Cl)cc2)c(=O)n(-c2ccc(Cl)cc2)c1=S
inactive: dose: 75.0 mg/kg/injection, schedule: Q04DX003 (ip), vehicle: Klucel (hydroxypropylcellulose) (HPC) 94 % of control | dose: 100.0 mg/kg/injection, schedule: Q01DX001 (ip), vehicle: Klucel (hydroxypropylcellulose) (HPC) 94 % of control | dose: 150.0 mg/kg/injection, schedule: Q04DX003 (ip), vehicle: Klucel (hydroxypropylcellulose) (HPC) 103 % of control | dose: 200.0 mg/kg/injection, schedule: Q01DX001 (ip), vehicle: Klucel (hydroxypropylcellulose) (HPC) 100 % of control | dose: 300.0 mg/kg/injection, schedule: Q04DX003 (ip), vehicle: Klucel (hydroxypropylcellulose) (HPC) 90 % of control

O=C(O)c1ccc[n+]([O-])c1
inactive: [17] 100 % of control | [19] 100 % of control
